# Measured values from patent US10463664B2, “Inhibitors of HSV nucleotidyl transferases and uses therefor” (Saint Louis University, priority 2013, dated 2019).
# Key:
# HCMV strain AD169 [1] = assay: Anti-HCMV CPE inhibition assay (crystal violet) in HFFs; type: cell-based, human cytomegalovirus; conditions: Human betaherpesvirus 5, AD169, 336 h, 14 days, read-out: EC50 against HCMV, CPE inhibition assay
# Method: (§1) Anti-HCMV CPE inhibition and cytotoxicity assays. HFFs were infected with HCMV strain AD169 in the presence of serial dilutions of the compounds from 0.0192 to 60 μM. Fourteen days later the monolayers were stained with crystal violet, and retained cell density was quantified using a multiplate autoreader (BioTek). Cytotoxicity was measured the same way, except that the cells were uninfected and neutral red internalization by viable cells was measured.
# (§2) Antiviral efficacy against HCMV. The ability of select HSV inhibitors to inhibit replication of another major human herpesvirus pathogen, human cytomegalovirus (HCMV) (65) was tested. This was based on the inhibitors strong suppression of HSV-1 and HSV-2 and the prediction that other members of the herpesvirus family would be sensitive to NTS inhibitors due to their shared DNA replication mechanism. Compounds #41, 46, 49, 55, 56, and 59 and the FDA-approved anti-HCMV drug ganciclovir were evaluated with crystal violet CPE and neutral red toxicity assays in HFFs. HFFs were infected with HCMV in the presence of serial dilutions of the compounds that were most inhibitory for HSVs. After 14 days the monolayers were stained and cell density was determined by OD reading. Compound cytotoxicity for uninfected cells was determined in the same manner except that neutral red uptake by viable cells was measured. […] The TI values for the four NTS inhibitors of HCMV ranged from 4 for compound #41 to 38 for #56. Therefore, NTS inhibitors can suppress HCMV replication in addition to inhibiting the HSVs.
# HCMV strain AD169 [2] = assay: HCMV plaque reduction assay in HFFs; type: cell-based, human cytomegalovirus; conditions: Human betaherpesvirus 5, AD169, 240 h, 10 days, read-out: EC50 against HCMV, plaque reduction assay
# Method: (§3) HCMV plaque reduction EC50 and toxicity assays. Low passage primary HFFs were infected with HCMV strain AD169 in the presence of serial dilutions of the compounds from 0.032 to 100 μM. Ten days later the monolayers were stained with 1% neutral red solution in PBS. After rinsing, plaques were counted using a stereomicroscope and the EC50 was interpolated from the data. Cytotoxicity was measured using a plate-based assay in which compounds were added to HFFs at 0.032 to 100 μM. At the end of the incubation period, plates were stained for 1 h with a neutral red solution in PBS. The stain was then removed, the plates rinsed in PBS and dried, and dye internalized by viable cells was determined at OD550. CC50 values were interpolated from the data.
# (§4) Compounds #41, 46, 49, 55, 56, and 59 and the FDA-approved, anti-HCMV drug ganciclovir were subsequently evaluated with plaque reduction and toxicity assays in HFFs. HFFs were infected with HCMV in the presence of serial dilutions of the compounds. After 10 days the cultures were stained with neutral red and plaques were counted. Compound cytotoxicity for uninfected cells was determined in the same manner except that neutral red uptake by viable cells was measured by optical density. […] The TI values for the five NTS inhibitors of HCMV ranged from 5 for compound #46 to 17 for #55 and 59. Therefore, NTS inhibitors can suppress HCMV replication in addition to inhibiting the HSVs.
# [3] = Neutral red cytotoxicity assay in HFFs (10 day, with plaque reduction assay); type: cell-based, human; conditions: human, uninfected primary human foreskin fibroblasts (HFFs), 10 day assay
# Method: as §3, §4
# [4] = Neutral red cytotoxicity assay in uninfected HFFs (14 day, with CPE assay); type: cell-based, human; conditions: human, uninfected human foreskin fibroblasts (HFFs)
# Method: as §1, §2
# [5] = mouse, in vivo; cited from earlier work
# [6] = Single dose pharmacokinetic study after peroral ciclopirox olamine; type: in vivo, BALB/c mice; conditions: 100 mg/kg oral gavage
# Method: Single dose pharmacokinetic study after peroral treatment with ciclopirox Olamine. Six week old BALB/c mice were treated with 100 mg/kg ciclopirox olamine by oral gavage. This is well below the oral toxicity level in mice of 1740 mg/kg (Spectrum Chemicals MSDS). At 15 min, 30 min, 1 h, 3 h and 5 h post-treatment, blood was collected from pairs of mice and the serum separated. Mice were then euthanized and trigeminal ganglia (TG), brainstems and corneas were dissected and frozen until tissue extraction was performed and the extracts analyzed by mass spectroscopy. Standardization to ciclopirox olamine was achieved using compound spiked into a matrix of relevant tissue homogenate from untreated mice.
# Ciclopirox olamine tissue concentrations (μM) after oral gavage. Ciclopirox olamine has previously been used to treat mice by oral gavage (25 to 40 mg/kg) for up to 60 days, but, assessment of penetration into the cornea and nervous system after oral gavage needed to be evaluated as well as tissue concentration over time to estimate appropriate dosing. In a single dose pharmacokinetic study, mice were treated with 100 mg/kg ciclopirox olamine by oral gavage. Pairs of mice were euthanized at various times post-treatment. Ciclopirox olamine concentrations in plasma, corneas, trigeminal ganglia and brainstems were determined by mass spectroscopy (FIG. 10). […] Ciclopirox olamine concentrations in cornea and nervous system tissues were only ˜5-fold lower than that in the plasma and remained above the estimated EC90 until 5 hours post-treatment.
# HSV-1 = assay: Topical treatment of mice infected with HSV-1 on the cornea; type: in vivo; conditions: summary statement
# Method: Compounds were administered at 1 μg/eye in 10% DMSO. Two mice were treated with 10% DMSO as a negative control. The corneal surface was swabbed once per day on days 1, 2, 4 and 5 post-infection and titer of virus shed from the epithelium was determined by standard plaque assay. On the fifth day post-infection mice were euthanized and the trigeminal ganglia (TG) and brainstems were dissected. The tissues were disrupted and virus in them quantified by plaque assay. […] Weight of individual mice was recorded daily. […] Saline was a negative control. On the fifth day post-infection mice were euthanized and the trigeminal ganglia (TG) and brainstems were dissected. The tissues were disrupted and virus in them quantified by plaque assay.
# Body weight was monitored daily post-infection as a sensitive indicator of overall health (FIG. 12).
# Infected mice treated with saline served as a negative control.
EC50 (HCMV strain AD169 [1]) [µM],EC50 (HCMV strain AD169 [2]) [µM],SMILES,CC50 at 10 days [3] [µM],CC50 at 14 days [4] [µM],Oral toxicity level in mice [5] [mg/kg],"Concentrations in cornea and nervous system tissues, fold lower than plasma [6] [fold]",Plasma concentration at time of uptake [6] [µM],"Free plasma concentration after 5 hours, fold above the estimated EC90 against HSV-1 ([6]; 5 hours) [fold]",Overall health of mice as shown by maintenance of body weight (HSV-1)
0.33,3.2,"Nc1nc(O)c2ncn(COC(CO)CO)c2n1 [Ganciclovir, reference compound]",> 100,> 300,,,,,
,,"Cc1cc(C2CCCCC2)n(O)c(=O)c1 [Compound 41-E, Ciclopirox ethanolamine]",,,1740,~5,~30,10,significantly improved the overall health
